Drawing on patent publication US5686486A, “4-hydroxy-benzopyran-2-ones and 4-hydroxy-cycloalkyl[b]pyran-2-ones useful to treat retroviral infections” (priority 1995, dated 1997), this text covers inhibition and Ki for six molecules.

Like-named read-outs stand apart in the source and are kept apart here.

Assay [1] has as its target T1, HIV-1 protease (Human immunodeficiency virus type 1 group M subtype B, UniProt P04585). The assay can be described thus: biochemical. The settings on record: for inhibition at 0.123 µM: read-out: HIV-1 Protease % Inhib, dose 0.123 uM; for inhibition at 0.37 µM: read-out: HIV-1 Protease % Inhib, dose 0.370 uM; for inhibition at 1.1 µM: read-out: HIV-1 Protease % Inhib, dose 1.100 uM; for inhibition at 3.3 µM: read-out: HIV-1 Protease % Inhib, dose 3.300 uM; for inhibition at 10 µM: read-out: HIV-1 Protease % Inhib, dose 10.000 uM; for inhibition at 30 µM: read-out: HIV-1 Protease % Inhib, dose 30.000 uM. A digest of the protocol:
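Biotinylated, FITC-labeled peptide substrate (20 μl of 0.2 μM) incubated with HIV-1 protease (10 μl of 0.1 μM) and compound in 0.1 M sodium acetate pH 5.5, 1.0 M NaCl, 0.05% NP-40, 1 h, room temperature, dark. Streptavidin beads then capture uncleaved substrate; filtered labeled product read by fluorescence, giving percent inhibition.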

Assay [2] deals with T1, HIV-1 protease. The assay can be described thus: biochemical. A digest of the protocol:
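Ki from two-fold serial inhibitor dilutions (24–48 concentrations) with 40 nM HIV-1 protease stock and 200 μM substrate stock, 90 min at room temperature; stopped with avidin beads. Reference inhibitor run in parallel; Ki by nonlinear least-squares fit.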

For orientation: Ki means a dissociation constant, usually derived from enzyme kinetics or from competition with a known ligand. `CCCC(c1cccc(NS(=O)(=O)c2ccc(C#N)cc2)c1)c1c(O)c2c(oc1=O)CCCCCC2` (stereo not shown) [Example 378, Benzenesulfonamide, 4-cyano-N-[3-[1-(5,6,7,8,9,10-hexahydro-4-hydroxy-2-oxo-2H-cycloocta[b]pyran-3-yl)butyl]phenyl]-]: in assay [1], the inhibition at 0.123 µM turned out to be 103%, the inhibition at 0.37 µM was determined as 111%, the inhibition at 1.1 µM is 112% and the inhibition at 3.3 µM worked out at 118%. For the same molecule, in assay [1], the inhibition at 10 µM was 112% and the inhibition at 30 µM turned out to be 112%. Further, the inhibition constant (Ki) in assay [2] (read-out: HIV-1 FITC KI) is 1.06 nM.
As to `CC(C)(C)OC(=O)NCCC(=O)Nc1cccc(C(c2c(O)c3c(oc2=O)CCCCC3)C2CC2)c1` (stereo not shown) [Example 214, Carbamic acid. [3-[[3-[cyclopropyl(2,5,6,7,8,9-hexahydro-4-hydroxy-2-oxocyclohepta[b]pyran-3-yl)methyl]phenyl]amino]-3-oxopropyl]-, 1,1-dimethylethyl ester], in assay [1], the inhibition at 0.123 µM is 18.7%, the inhibition at 0.37 µM came out at 54%, the inhibition at 1.1 µM is 74.1% and the inhibition at 3.3 µM was determined as 88.6%. Also, in assay [1], the inhibition at 10 µM is 95.2% and the inhibition at 30 µM stood at 96.2%. Besides, the Ki in assay [2] (read-out: HIV-1 FITC KI) was determined as 19.3 nM.
In the case of `CC(C)CC(c1cccc(NS(=O)(=O)c2ccc(C#N)cc2)c1)c1c(O)c2c(oc1=O)CCCCCC2` (stereo not shown) [Example 426, Benzenesulfonamide, 4-cyano-N-[3-[1-(5,6,7,8,9,10-hexahydro-4-hydroxy-2-oxo-2H-cycloocta[b]pyran-3-yl)-3-methylbutyl]phenyl]-], in assay [1], the inhibition at 0.123 µM was found to be 102%, the inhibition at 0.37 µM was found to be 117%, the inhibition at 1.1 µM came out at 109% and the inhibition at 3.3 µM is 102%. Also, in assay [1], the inhibition at 10 µM was 102% and the inhibition at 30 µM was found to be 106%. Also, the inhibition constant Ki in assay [2] (read-out: HIV-1 FITC KI) came to 1.48 nM.
For the molecule `O=c1oc2c(c(O)c1C(c1cccc(NS(=O)(=O)CCCI)c1)C1CC1)CCCCCC2` (stereo not shown) [Example 365C, 3-Iodo-N-[3-[cyclopropyl(5,6,7,8,9,10-hexahydro-4-hydroxy-2-oxo-2H-cycloocta[b]pyran-3-yl)methyl]phenyl]-1-propanesulfonamide], in assay [1], the inhibition at 0.123 µM is 63%, the inhibition at 0.37 µM amounted to 93.6%, the inhibition at 1.1 µM was found to be 102% and the inhibition at 3.3 µM stood at 71.5%. In assay [1], the inhibition at 10 µM worked out at 87.5% and the inhibition at 30 µM was 83.5%. In addition, the Ki in assay [2] (read-out: HIV-1 FITC KI) is 16.6 nM.
As for `O=C(CCn1ccc2ccccc21)Nc1cccc(C(c2c(O)c3ccccc3oc2=O)C2CC2)c1` (stereo not drawn) [Example 168, Coumarin, 4-hydroxy-3-(α-(3-((3-(1H-indol-1-yl)-1-oxopropyl)amino)phenyl)cyclopropylmethyl)], in assay [1], the inhibition at 0.37 µM stood at 12.4%, the inhibition at 1.1 µM came to 46.4%, the inhibition at 3.3 µM is 74.9% and the inhibition at 10 µM was found to be 94.7%. In addition, the inhibition at 30 µM in assay [1] amounted to 107%. In assay [2] (HIV-1 FITC KI), this molecule yielded a Ki of 135 nM.
As for `CCC(c1cccs1)c1c(O)c2c(oc1=O)CCCCCC2` (stereo not drawn) [Example 380, 3-(α-Ethylthien-2-ylmethyl)4-hydroxy-5,6,7,8,9,10-hexahydrocycloocta[b]pyran-2-one], in assay [1], the inhibition at 0.37 µM stood at 21.5%, the inhibition at 1.1 µM was determined as 57.2%, the inhibition at 3.3 µM amounted to 82.5% and the inhibition at 10 µM amounted to 103%. Besides, in assay [1], the inhibition at 30 µM is 108%. Also, the Ki in assay [2] (read-out: HIV-1 FITC KI) came out at 87.9 nM.
